Measured values reported in patent US20120045393A1 (priority 2009, published 2012).
Non-standard residues stand in square brackets, D forms with d. Residues, ends and D or L forms follow the SMILES beside them. *: point of attachment. DOTA = O=C(O)CN1CCN(CC(=O)O)CCN(CC(=O)*)CCN(CC(=O)O)CC1; Bpa = N[C@@H](Cc1ccc(C(=O)c2ccccc2)cc1)C(=O)O; Ala(4-thiazolyl) = N[C@@H](Cc1cscn1)C(=O)O; d2Nal = N[C@H](Cc1ccc2ccccc2c1)C(=O)O; azaGly = NNC(=O)O; Sar = CNCC(=O)O

The compounds below were run on LHRH binding sites on human ovarian cancer cells (EFO-27). Conditions: not given.
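Also: Cell-associated radioactivity on confluent EFO-27 monolayers in 96-well plates, measured by microplate scintillation counting.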

Structure (SMILES) | EC50 [nM]
CNCC(=O)N[C@@H](CCCNC(=N)N)C(=O)N[C@@H](Cc1c[nH]c2ccccc12)C(=O)N[C@@H](CO)C(=O)N[C@@H](Cc1c[nH]cn1)C(=O)N[C@H](CCCNC(=N)N)C(=O)N[C@@H](Cc1c[nH]c2ccccc12)C(=O)N[C@@H](Cc1ccc(C(=O)c2ccccc2)cc1)C(=O)N1CCC[C@H]1C(=O)NCCCN(C)CCCNC(=O)CN1CCN(CC(=O)O)CCN(CC(=O)O)CCN(CC(=O)O)CC1 [BRU-3045] | ≤ 200
CN(CC(=O)N[C@@H](Cc1c[nH]cn1)C(=O)N[C@@H](Cc1c[nH]c2ccccc12)C(=O)N[C@@H](CO)C(=O)N[C@@H](Cc1c[nH]cn1)C(=O)N[C@H](CCCNC(=N)N)C(=O)N[C@@H](Cc1c[nH]c2ccccc12)C(=O)N[C@@H](Cc1cccnc1)C(=O)N1CCC[C@H]1C(=O)NNC(N)=O)C(=O)CN1CCN(CC(=O)O)CCN(CC(=O)O)CCN(CC(=O)O)CC1 [BRU-2726] | 17400

Results, then the compound that gave them:

EC50 [nM] | Structure (SMILES)
12800 | CN(CC(=O)N[C@@H](Cc1cscn1)C(=O)N[C@@H](Cc1c[nH]c2ccccc12)C(=O)N[C@@H](CO)C(=O)N[C@@H](Cc1c[nH]cn1)C(=O)N[C@H](CCCNC(=N)N)C(=O)N[C@@H](Cc1c[nH]c2ccccc12)C(=O)N[C@@H](Cc1ccc(C(=O)c2ccccc2)cc1)C(=O)N1CCC[C@H]1C(=O)NNC(N)=O)C(=O)CN1CCN(CC(=O)O)CCN(CC(=O)O)CCN(CC(=O)O)CC1 [BRU-2768] ({DOTA}-[Sar][Ala(4-thiazolyl)]WSH[dR]W[Bpa]P[azaGly]-NH2)
8540 | NCCCC[C@@H](NC(=O)[C@H](Cc1c[nH]cn1)NC(=O)[C@H](CO)NC(=O)[C@H](Cc1c[nH]c2ccccc12)NC(=O)[C@H](Cc1c[nH]cn1)NC(=O)[C@@H]1CCC(=O)N1)C(=O)N[C@@H](Cc1c[nH]c2ccccc12)C(=O)N[C@@H](Cc1ccc(O)cc1)C(=O)N1CCC[C@H]1C(=O)NNC(N)=O [BRU-2437] (HELM PEPTIDE1{[Glp].H.W.S.H.[dK].W.Y.P.[O=C(NN[*:1])[*:2]].[am]}$$$$V2.0)
590 to 1000 | CNCC(=O)N[C@@H](Cc1c[nH]cn1)C(=O)N[C@@H](Cc1c[nH]c2ccccc12)C(=O)N[C@@H](CO)C(=O)N[C@@H](Cc1c[nH]cn1)C(=O)N[C@H](CCCNC(=N)N)C(=O)N[C@@H](Cc1c[nH]c2ccccc12)C(=O)N[C@@H](Cc1ccc(C(=O)c2ccccc2)cc1)C(=O)N1CCC[C@H]1C(=O)NCCNC(=O)CN1CCN(CC(=O)O)CCN(CC(=O)O)CCN(CC(=O)O)CC1 [BRU-3079]
4550 | CN(CC(=O)N[C@@H](Cc1c[nH]cn1)C(=O)N[C@@H](Cc1c[nH]c2ccccc12)C(=O)N[C@@H](CO)C(=O)N[C@@H](Cc1c[nH]cn1)C(=O)N[C@H](CCCNC(=N)N)C(=O)N[C@@H](Cc1c[nH]c2ccccc12)C(=O)N[C@H](C(=O)N1CCC[C@H]1C(=O)NNC(N)=O)C(c1ccccc1)c1ccccc1)C(=O)CN1CCN(CC(=O)O)CCN(CC(=O)O)CCN(CC(=O)O)CC1 [BRU-2721]
230 to 500 | CNCC(=O)N[C@@H](CCCNC(=N)N)C(=O)N[C@@H](Cc1c[nH]c2ccccc12)C(=O)N[C@@H](CO)C(=O)N[C@@H](Cc1c[nH]cn1)C(=O)N[C@H](CCCNC(=N)N)C(=O)N[C@@H](Cc1c[nH]c2ccccc12)C(=O)N[C@@H](Cc1ccc(C(=O)c2ccccc2)cc1)C(=O)N1CCC[C@H]1C(=O)NCc1cccc(CNC(=O)CN2CCN(CC(=O)O)CCN(CC(=O)O)CCN(CC(=O)O)CC2)n1 [BRU-3080]
2260 | CN(CC(=O)N[C@@H](Cc1c[nH]cn1)C(=O)N[C@@H](Cc1c[nH]c2ccccc12)C(=O)N[C@@H](CO)C(=O)N[C@@H](Cc1c[nH]cn1)C(=O)N[C@H](CCCNC(=N)N)C(=O)N[C@@H](Cc1c[nH]c2ccccc12)C(=O)N[C@@H](Cc1ccc(Cl)cc1)C(=O)N1CCC[C@H]1C(=O)NNC(N)=O)C(=O)CN1CCN(CC(=O)O)CCN(CC(=O)O)CCN(CC(=O)O)CC1 [BRU-2725]
670 | N=C(N)NCCC[C@H](NC(=O)[C@@H](Cc1ccc2ccccc2c1)NC(=O)CN1CCN(CC(=O)O)CCN(CC(=O)O)CCN(CC(=O)O)CC1)C(=O)N[C@@H](Cc1c[nH]c2ccccc12)C(=O)N[C@@H](CO)C(=O)N[C@@H](Cc1c[nH]cn1)C(=O)N[C@H](CCCNC(=N)N)C(=O)N[C@@H](Cc1c[nH]c2ccccc12)C(=O)N[C@@H](Cc1ccc(C(=O)c2ccccc2)cc1)C(=O)O [compound 3064] ({DOTA}-[d2Nal]RWSH[dR]W[Bpa]-OH; N-terminus assumed)
230 to 500 | CNCC(=O)N[C@@H](CCCNC(=N)N)C(=O)N[C@@H](Cc1c[nH]c2ccccc12)C(=O)N[C@@H](CO)C(=O)N[C@@H](Cc1c[nH]cn1)C(=O)N[C@H](CCCNC(=N)N)C(=O)N[C@@H](Cc1c[nH]c2ccccc12)C(=O)N[C@@H](Cc1ccc(C(=O)c2ccccc2)cc1)C(=O)N1CCC[C@H]1C(=O)NCCCCNC(=O)CN1CCN(CC(=O)O)CCN(CC(=O)O)CCN(CC(=O)O)CC1 [BRU-3041]
14200 | CN(CC(=O)N[C@@H](Cc1c[nH]cn1)C(=O)N[C@@H](Cc1c[nH]c2ccccc12)C(=O)N[C@@H](CO)C(=O)N[C@@H](Cc1c[nH]cn1)C(=O)N[C@H](CCCNC(N)=O)C(=O)N[C@@H](Cc1c[nH]c2ccccc12)C(=O)N[C@@H](Cc1ccc(C(=O)c2ccccc2)cc1)C(=O)N1CCC[C@H]1C(=O)NNC(N)=O)C(=O)CN1CCN(CC(=O)O)CCN(CC(=O)O)CCN(CC(=O)O)CC1 [BRU-2729]
980 | CN(CC(=O)N[C@@H](Cc1c[nH]cn1)C(=O)N[C@@H](Cc1c[nH]c2ccccc12)C(=O)N[C@@H](CO)C(=O)N[C@@H](Cc1c[nH]cn1)C(=O)N[C@H](CCCNC(=N)N)C(=O)N[C@@H](Cc1c[nH]c2ccccc12)C(=O)N[C@@H](Cc1ccc(C(C)(C)C)cc1)C(=O)N1CCC[C@H]1C(=O)NNC(N)=O)C(=O)CN1CCN(CC(=O)O)CCN(CC(=O)O)CCN(CC(=O)O)CC1 [BRU-2634]
400 ± 250 | CNCC(=O)N[C@@H](CCCNC(=N)N)C(=O)N[C@@H](Cc1c[nH]c2ccccc12)C(=O)N[C@@H](CO)C(=O)N[C@@H](Cc1c[nH]cn1)C(=O)N[C@H](CCCNC(=N)N)C(=O)N[C@@H](Cc1c[nH]c2ccccc12)C(=O)N[C@@H](Cc1ccc(C(=O)c2ccccc2)cc1)C(=O)N1CCC[C@H]1C(=O)NCCCCCNC(=O)CN1CCN(CC(=O)O)CCN(CC(=O)O)CCN(CC(=O)O)CC1 [compound 3085]

Same assay, conditions: EFO-27 cells, competition with [125I-Tyr8]BRU-2477, 90 min

Structure (SMILES) | EC50 [nM]
N=C(N)NCCC[C@H](NC(=O)[C@@H](Cc1ccc2ccccc2c1)NC(=O)CN1CCN(CC(=O)O)CCN(CC(=O)O)CCN(CC(=O)O)CC1)C(=O)N[C@@H](Cc1c[nH]c2ccccc12)C(=O)N[C@@H](CO)C(=O)N[C@@H](Cc1c[nH]cn1)C(=O)N[C@H](CCCNC(=N)N)C(=O)N[C@@H](Cc1c[nH]c2ccccc12)C(=O)N[C@@H](Cc1ccc(C(=O)c2ccccc2)cc1)C(=O)N1CCC[C@H]1C(=O)NCC(=O)NCCCCO [compound 2978] | 2000
N=C(N)NCCC[C@H](NC(=O)[C@H](Cc1ccc(OP(=O)(O)O)cc1)NC(=O)CN1CCN(CC(=O)O)CCN(CC(=O)O)CCN(CC(=O)O)CC1)C(=O)N[C@@H](Cc1c[nH]c2ccccc12)C(=O)N[C@@H](CO)C(=O)N[C@@H](Cc1c[nH]cn1)C(=O)N[C@H](CCCNC(=N)N)C(=O)N[C@@H](Cc1c[nH]c2ccccc12)C(=O)N[C@@H](Cc1ccc(C(=O)c2ccccc2)cc1)C(=O)N1CCC[C@H]1C(=O)NNC(N)=O [BRU-3093] | 17000
N=C(N)NCCC[C@H](NC(=O)[C@@H](Cc1ccc2ccccc2c1)NC(=O)CN1CCN(CC(=O)O)CCN(CC(=O)O)CCN(CC(=O)O)CC1)C(=O)N[C@@H](Cc1c[nH]c2ccccc12)C(=O)N[C@@H](CO)C(=O)N[C@@H](Cc1c[nH]cn1)C(=O)N[C@H](CCCNC(=N)N)C(=O)N[C@@H](Cc1c[nH]c2ccccc12)C(=O)N[C@@H](Cc1ccc(C(=O)c2ccccc2)cc1)C(=O)N1CC[C@H]1C(=O)NNC(N)=O [compound 2993] | 380

Same assay, conditions: Table 5: modifications of amino acids at positions 1 and 2; in vitro binding on EFO-27 cells

Structure (SMILES) | EC50 [nM]
N=C(N)NCCC[C@@H](NC(=O)[C@H](Cc1c[nH]cn1)NC(=O)[C@H](CO)NC(=O)[C@H](Cc1c[nH]c2ccccc12)NC(=O)[C@H](Cc1c[nH]cn1)NC(=O)[C@@H](Cc1ccccc1)NC(=O)CN1CCN(CC(=O)O)CCN(CC(=O)O)CCN(CC(=O)O)CC1)C(=O)N[C@@H](Cc1c[nH]c2ccccc12)C(=O)N[C@@H](Cc1ccc(C(=O)c2ccccc2)cc1)C(=O)N1CCC[C@H]1C(=O)NNC(N)=O [BRU-2894] | 2000
N=C(N)NCCC[C@@H](NC(=O)[C@H](Cc1c[nH]cn1)NC(=O)[C@H](CO)NC(=O)[C@H](Cc1c[nH]c2ccccc12)NC(=O)[C@H](Cc1c[nH]cn1)NC(=O)[C@@H](Cc1ccc(O)cc1)NC(=O)CN1CCN(CC(=O)O)CCN(CC(=O)O)CCN(CC(=O)O)CC1)C(=O)N[C@@H](Cc1c[nH]c2ccccc12)C(=O)N[C@@H](Cc1ccc(C(=O)c2ccccc2)cc1)C(=O)N1CCC[C@H]1C(=O)NNC(N)=O [BRU-2870] ({DOTA}-[dY]HWSH[dR]W[Bpa]P[azaGly]-NH2) | 10000
CN(CC(=O)N[C@@H](CCCCN)C(=O)N[C@@H](Cc1c[nH]c2ccccc12)C(=O)N[C@@H](CO)C(=O)N[C@@H](Cc1c[nH]cn1)C(=O)N[C@H](CCCNC(=N)N)C(=O)N[C@@H](Cc1c[nH]c2ccccc12)C(=O)N[C@@H](Cc1ccc(C(=O)c2ccccc2)cc1)C(=O)N1CCC[C@H]1C(=O)NNC(N)=O)C(=O)CN1CCN(CC(=O)O)CCN(CC(=O)O)CCN(CC(=O)O)CC1 [BRU-2871] ({DOTA}-[Sar]KWSH[dR]W[Bpa]P[azaGly]-NH2) | 10000

Same assay, conditions: Table 8: N-substituted amino acid at position 1 and Gly as linker; in vitro binding on EFO-27 cells

Structure (SMILES) | EC50 [nM]
COCCN(CC(=O)N[C@@H](Cc1c[nH]cn1)C(=O)N[C@@H](Cc1c[nH]c2ccccc12)C(=O)N[C@@H](CO)C(=O)N[C@@H](Cc1c[nH]cn1)C(=O)N[C@H](CCCNC(=N)N)C(=O)N[C@@H](Cc1c[nH]c2ccccc12)C(=O)N[C@@H](Cc1ccc(C(=O)c2ccccc2)cc1)C(=O)N1CCC[C@H]1C(=O)NNC(N)=O)C(=O)CNC(=O)CN1CCN(CC(=O)O)CCN(CC(=O)O)CCN(CC(=O)O)CC1 [compound 2796] | 340

Same assay, conditions: Table 12: modification of amino acid at position 3; EFO-27 cells

Structure (SMILES) | EC50 [nM]
N=C(N)NCCC[C@H](NC(=O)[C@@H](Cc1ccc2ccccc2c1)NC(=O)CN1CCN(CC(=O)O)CCN(CC(=O)O)CCN(CC(=O)O)CC1)C(=O)N[C@H](Cc1c[nH]c2ccccc12)C(=O)N[C@@H](CO)C(=O)N[C@@H](Cc1c[nH]cn1)C(=O)N[C@H](CCCNC(=N)N)C(=O)N[C@@H](Cc1c[nH]c2ccccc12)C(=O)N[C@@H](Cc1ccc(C(=O)c2ccccc2)cc1)C(=O)N1CCC[C@H]1C(=O)NNC(N)=O [compound 3112] | 850
